Results: a melting point compilation (Tetko et al.; mined from patent text by program, amines drawn as free bases though some values may be those of a salt)

Row | melting point | SMILES
1 | 195 to 197 °C | CCOC(=O)c1cn2c(cc(OC)c3cc(OC)c(OC)cc32)n1
2 | 134 to 136 °C | CC(C)CN1C(=O)CN=C(N2CCN(C)CC2)c2ccccc21
3 | 162 to 163 °C | Cc1ccc(C)c(OCc2ccccc2C(=O)O)c1
4 | 148 to 150 °C | COC(=O)CN(C1c2cc(Cl)ccc2OC(C)(C)C1O)S(C)(=O)=O (stereo unspecified)
5 | 152 to 153 °C | Cc1ccc2c(c1)c(CCC(=O)O)c1n2C(=O)CCC1
6 | 124 to 126 °C | CCN(CCOc1cccnc1[N+](=O)[O-])CCN1C(=O)c2ccccc2C1=O
7 | 205 to 207 °C | CS(=O)(=O)c1ccc(-c2nc(=O)c3ccccc3s2)cn1
8 | 332 to 336 °C | N#CCCn1c2ccc(O)cc2c2c3c(c(-c4ccccc4Cl)cc21)C(=O)NC3=O
9 | 145 °C | CNC(=O)n1sc(OCc2ccc(Cl)cc2)nc1=O
10 | 119 to 121 °C | Nc1ccc2c(c1)CS(=O)(=O)N2CCF
11 | 178 to 179 °C | Nc1nc2[nH]c(CCC#Cc3ccc(C(=O)N[C@@H](CCC(=O)O)C(=O)O)cn3)cc2c(=O)[nH]1
12 | 137 to 138 °C | CCCCc1cn(CCc2cccs2)c(=O)n1Cc1ccc(-c2ccccc2-c2nnn[nH]2)nc1
13 | 157 °C | Cc1nn(-c2ccc(F)cc2)cc1C(=O)N(CC(=O)O)c1ccc(OCC(C)(C)C)c(C#N)c1
14 | > 300 °C | CCn1c(=O)c2[nH]c(/C=C/c3ccc4c(c3)OCCO4)nc2n(CC)c1=O
15 | 157 to 158 °C | Cc1cc(C)cc(Oc2c(C(C)C)c(=O)[nH]c(=O)n2CC2CCCC2)c1
16 | 135 to 136 °C | Cc1ccc(C)c(C(CCC(=O)O)Oc2cc(OCc3ccsc3)ccc2C#N)c1 (racemic)
17 | 229 to 231 °C | O=C(O)c1cc(NCCCc2ccc([N+](=O)[O-])cc2)ccc1O
18 | 186 to 191 °C | COc1cccc(S(=O)(=O)c2cccc(N)c2C#N)c1
19 | 168 to 170 °C | CC(C)(C)C(=O)Cn1ncc(-c2ccc(S(C)(=O)=O)cc2)c(-c2ccc(F)cc2)c1=O
20 | 239 to 240 °C | Cc1ccc2c(-c3cc(C(C)(C)C)c(O)c(C(C)(C)C)c3)n[nH]c2n1
21 | 179 °C | Cc1ccc2c(c1)c(=O)c1c(cnn1C)n2CCCNS(C)(=O)=O
22 | 202 to 205 °C | CC1(C)C=Cc2c(ccc3c2C(=O)C(Br)=C(O)C3=O)O1

Continued, compound first:

Row | SMILES | melting point
23 | CCc1nc2c(cnn2CC)c(NC2CCOCC2)c1CNC(=O)c1cccc(C(=O)NCc2ccc(Cl)c(-c3cccc(CN4CCCNCC4)c3)c2)c1 | 116 to 119 °C
24 | CN(C)Cc1ccc(CSCCNC(=O)NCCN(C)CCN(Cc2ccc(F)cc2)c2ccccn2)o1 | 90 °C
25 | Cc1sc(C)c(Cc2nc3c(F)c(F)cc(F)c3s2)c1CC(=O)O | 170 to 171 °C
26 | NC(N)=NC(=O)Cc1c(-c2ccccc2)csc1-c1ccc(Oc2ccccc2)cc1 | 116 to 118 °C
27 | NC(=NO)c1cccc(Oc2ccc3c(c2)S(=O)(=O)N=C2CCCN23)c1 | 165 to 169 °C
28 | c1cc(-c2ccsc2)ccn1 | 138 °C
29 | COC(=O)C1=C(C)NC(c2c(F)cc(F)cc2F)=NC1c1ccc(F)cc1Cl (stereo unspecified) | 112 to 114 °C
30 | CNC(SC)=C(C#N)C#N | 119 to 120 °C
31 | CC(C)(C)c1cc(-c2csc3nc(-c4ccccc4)c(-c4ccccc4)n23)cc(C(C)(C)C)c1O | 237 to 238 °C
32 | CC(=O)OCC1OC(Oc2ncn(Cc3ccc([N+](=O)[O-])cc3)c2C(N)=O)C(OC(C)=O)C1OC(C)=O (stereo unspecified) | 156 °C
33 | COc1ccc(COc2cc3c(cc2-c2cc(C=CC(=O)O)ccc2OC)C(C)(C)CCC3(C)C)cc1 | 201 to 203 °C
34 | Nc1cccc(-c2ccc(CC3CCCCN3Cc3ccccc3)cc2)n1 (stereo unspecified) | 70 to 85 °C
35 | Fc1ccc(-c2[nH]c(C3CCN(Cc4ccccc4)CC3)nc2-c2ccncc2)cc1 | 212 to 215 °C
36 | c1ccc2c(C3CNCCNCCNCCNCCN3)cccc2c1 (stereo unspecified) | 87 to 88 °C
37 | O=C1c2ccccc2C(=O)N1OCc1cc[nH]n1 | 166 to 168 °C
38 | Cc1oc2nc3c(c(N)c2c1C)C(=O)CCC3 | 190 to 198 °C
39 | O=C(Nc1cccc2cc(Br)cnc12)c1ccc(O)c(O)c1O | 183 to 193 °C
40 | Cc1c(O)c2c(c(C)c1NC(=O)CC(C)(C)C)[C@@H](c1ccc(C(C)C)cc1)CO2 | 181 to 182 °C
41 | O=C1CCCc2cc(Sc3cccc(F)c3)ccc21 | 66.2 to 66.7 °C
42 | O=C(O)c1cnc2cc(C(F)(F)F)ccc2c1Cl | 310 °C
43 | CSc1sc(-c2ccccn2)c2c1-c1oncc1C(C)(C)C2 | 153 to 155 °C
44 | Cc1c(F)c(F)c(F)c2c1c(=O)c(C(=O)O)cn2CCO | 244 to 247 °C
45 | O=C(c1ccccc1)C(F)c1ccccc1 (stereo unspecified) | 50 to 51 °C
46 | COc1cc2c(cc1OC)C(=CC(N)=O)NCC2 | 156 to 158 °C
47 | CC(=O)Oc1cc(N2C(=O)CC(SC3CCCCC3)C2=O)ccc1C(=O)O (stereo unspecified) | 155 to 158 °C

Row | SMILES | melting point
48 | CCc1nc(N)sc1-c1ccncc1 | 209 to 211 °C
49 | Cc1cccc(NC(=O)NCC(=O)N(CC(=O)N2CCC3(CCCC3)CC2)c2ccccc2)c1 | 183 °C
50 | CN(C(=O)Cc1ccccc1)c1ccc(OC23CC4CC(CC(C4)C2)C3)cc1 | 89 to 91 °C
51 | COc1cccc(CC(=S)SCC(=O)O)c1 | 93 to 95 °C
52 | N#CC(C#N)CC(=O)c1ccc(Cl)s1 | 155 to 158 °C
53 | CC(=O)N(C(C)=O)c1nc2n(n1)CCc1ccccc1-2 | 139 to 140 °C
54 | COCN1C(C)=NC(C)=C(C(=O)NCCCN2CCC(C(=O)OC)(c3ccccc3)CC2)C1c1ccc(F)c(F)c1 (stereo unspecified) | 53 to 57 °C
55 | C[C@@H](n1ccn(-c2ccc(-n3ccnn3)cc2)c1=O)[C@](O)(Cn1cncn1)c1ccc(F)cc1F | 178 to 181 °C
56 | CC(=O)N[C@@H](C)COc1cc2oc(-c3ccc(OC[C@H]4CC4(F)F)c(F)c3)nc2cn1 | 181 °C
57 | O=C(NC(c1ccccc1)C(O)C(=O)OCc1ccccc1)c1ccccc1 (stereo unspecified) | 129 to 131 °C
58 | CCOC(=O)[C@@H](N)Cc1ccc([N+](=O)[O-])cc1I | 33 to 34 °C
59 | COCOc1ccccc1C=CC(=O)O | 133 to 134 °C
60 | CCOC(=O)CS(=O)CCCCl (stereo unspecified) | 46 to 47 °C
61 | Cc1c(NC(=O)c2ccc(CC(=O)C3CCOC3)cc2)ccc2cc(CN3CCCC3)cnc12 (stereo unspecified) | 142 to 143 °C
62 | NC(=S)NN=C(CNC(=O)Cc1ccccc1)c1ccccc1 | 170 to 172 °C
63 | CCOC(=O)C(C(=O)CBr)C1Cc2ccccc2C(c2ccccc2)N1 (stereo unspecified) | 107 to 109 °C
64 | CS(=O)CC(=O)c1ccc(Cl)cc1N (stereo unspecified) | 129 to 132 °C
65 | O=c1c(-c2ccccc2)c(-c2ccccc2)oc2cc(OCC(O)CNC3CC3)ccc12 (stereo unspecified) | 135 to 137 °C
66 | CC(C)(C)ON=C1CCC(NC(=O)N2CCn3c(Cl)c(-c4cccc(F)c4)c(C(N)=O)c3C2)CC1 (stereo unspecified) | 195 to 198 °C
67 | COC1CCC2(C)C(=CCC3C4CCC(=O)C4(C)CCC32)C1 (stereo unspecified) | 133 to 135 °C
68 | NC(=O)CNC(=O)c1ccc(-c2cccc3cc(Cc4cccc(C(F)(F)F)c4)sc23)nc1 | 191 to 192 °C
69 | COC(=O)CCC(=O)c1ccc(F)cc1 | 48 to 50 °C
70 | CCOC(=S)c1csc2nc(Cc3ccccc3)cn12 | 83 to 84 °C
71 | C=C(F)C(=O)Oc1c(Br)cc(C#N)cc1Br | 135 to 138 °C
